Laboratory results: PubChem BioAssay (NCI)
Where “and” joins values, the source holds several entries; their conditions need not be identical. Equal entries are not always repeated.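 1) Cells in 96-well plates. 2) Compound, 48 h, 5 concentrations. 3) Linear interpolation between surrounding doses. 4) Unreached endpoint = highest concentration. GI50 marks 50% less growth. TGI: concentration producing complete growth inhibition.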

Assays:
Assay in all cases: NCI-60 cell line screen, 48 h
CAKI-1 renal = test system: CAKI-1 renal
DU-145 prostate = test system: DU-145 prostate
HCC-2998 colon = test system: HCC-2998 colon
HL-60(TB) leukemia = test system: HL-60(TB) leukemia
K-562 leukemia = test system: K-562 leukemia
MDA-MB-435 = test system: MDA-MB-435
RXF 393 renal = test system: RXF 393 renal
SF-295 CNS = test system: SF-295 CNS
SK-MEL-28 melanoma = test system: SK-MEL-28 melanoma
UACC-62 melanoma = test system: UACC-62 melanoma

| Structure (SMILES) | TGI (CAKI-1 renal) [µM] | TGI (DU-145 prostate) [µM] | TGI (HCC-2998 colon) | TGI (HL-60(TB) leukemia) [µM] | TGI (K-562 leukemia) [µM] | TGI (MDA-MB-435) | TGI (RXF 393 renal) | TGI (SF-295 CNS) [µM] | TGI (SK-MEL-28 melanoma) [µM] | TGI (UACC-62 melanoma) | GI50 (SK-MEL-28 melanoma) [µM] |
| --- | --- | --- | --- | --- | --- | --- | --- | --- | --- | --- | --- |
| CC1(C)CCC2(C(=O)OC3OC(CO)C(O)C(O)C3O)CCC3(C)C(=CCC4C5(C)CCC(OC6OC(CO)C(O)C(O)C6O)C(C)(C)C5CCC43C)C2C1 (stereo not given) | > 25 | > 25 | 9.83 µM | 16.4 | > 25 | > 25 µM | > 25 µM | > 25 | > 25 | > 25 µM |  |
| N[C@H]1CCN(c2c(F)cc3c(=O)c(C(=O)O)cn4c3c2Oc2cc3c(ccc5ccccc53)cc2-4)C1 | > 100 | > 100 | 6.82 µM | > 100 | > 100 | > 100 µM | > 100 µM | > 100 |  | > 100 µM |  |
| COc1ccc(N=c2ssc(C(=S)Nc3ccc(OC)cc3)c2S)cc1 | > 100 | > 100 | 84.6 µM | > 100 | > 100 | > 100 µM | > 100 µM | > 100 | > 100 | > 100 µM |  |
| Nc1ccc2c(c1)C(=O)N(O)C2=O |  |  | > 100 µM | > 100 | > 100 |  | > 100 µM | > 100 | > 100 | > 100 µM |  |
| CC1=C2C(=O)OCC23C=COC3(C)O1 (stereo not given) | 68.8 | > 100 | > 100 µM |  | > 100 | 53.3 µM | > 100 µM | > 100 | 46.3 | 46.7 µM |  |
| N#CC(c1ccccc1)N1CCCN(C(C#N)c2ccccc2)C1c1ccccc1O (stereo not given) | > 100 | > 100 | > 100 µM | > 100 | > 100 | > 100 µM | > 100 µM | > 100 | > 100 | > 100 µM |  |
| CCOC(=O)/C(=C\NCC(OCC)OCC)c1nc2ccccc2[nH]1 | > 100 | > 100 | 51.3 µM | 52.3 | 81 | 73.3 µM | > 100 µM | > 100 | 77 | 33.2 µM |  |
| CN(C)CCn1c(=O)c2ccc3c4c(nn3CCN(C)C)c3cc(N)ccc3n(c1=O)c24 | 1.47 | 0.438 | 1.04 µM | 0.506 | 16.7 | 0.0654 µM | 0.173 µM | 0.584 | 0.394 | 0.281 µM |  |
| COc1ccc(/C=C(\C#N)c2nc(N)nc(N3N=C(C)CC3(C)C)n2)c(O)c1 | 38.1 | 37.7 | 38.2 µM | 46.8 | 84.7 | 33.1 µM | 33.4 µM | 43 | 29.6 | 34.6 µM |  |
| O=CN1CCN(C(=O)c2cc(Cl)cc(Cl)c2)C1=S | 26 | 37.5 | 31.9 µM | 29.7 | 97.5 | 28.1 µM | 30.6 µM | 36 | 39.2 | 31.2 µM |  |
| CC(=O)OC1CC(O)CC2=CCC3C4CCC(C(C)(O)C(O)CC5COC(=O)C5C)C4(C)CCC3C21C (stereo not given) | > 25 | > 25 | > 25 µM | 12.8 | > 25 | > 25 µM | > 25 µM | > 25 | > 25 | > 25 µM |  |
| O=S1(=O)OC(c2ccc(O)cc2)(c2ccc(O)cc2)c2ccccc21 | > 100 | > 100 | > 100 µM | > 100 | > 100 | > 100 µM | > 100 µM | > 100 | > 100 | > 100 µM |  |
| [O-][N+](CCO)(CCO)c1ncnc2nc[nH]c12 | > 100 | > 100 | > 100 µM |  | > 100 | > 100 µM | > 100 µM | > 100 | > 100 | > 100 µM |  |
| O=[n+]1c2c(n([O-])c3ccccc31)-c1cccc3cccc-2c13 |  | > 100 | > 100 µM | > 100 | > 100 | > 100 µM | > 100 µM | > 100 |  |  |  |
| CC[C@@]1(O)C(=O)OCc2c1cc1n(c2=O)Cc2c-1nc1ccc(O)cc1c2CC[Si](C)(C)C |  | 0.00129 | 0.0641 µM and 0.0601 µM | < 0.001 |  | 0.495 µM and 0.887 µM | 0.0494 µM and 0.0625 µM | 0.0296 | > 100 | 0.0172 µM and 0.0149 µM | 0.107 |
| COc1ccc(N=C2C(=O)C3=C(OC(C)(C)CC3)c3ccccc32)cc1 | 1.84 | 1.57 | 3.96 µM | 4.38 | 2.24 | 0.502 µM | 2.43 µM | 1.56 | 2.48 | 1.74 µM |  |
| CCOC(=O)C1CCn2c(nc3c2c(=O)n(C)c(=O)n3C)S1 (stereo not given) | > 100 |  |  | > 100 | > 100 |  | > 100 µM | > 100 |  | > 100 µM |  |
| Nc1nc(N)c2c(n1)NC(c1ccccc1)CC(/C=C/c1ccc(Cl)cc1)=N2 (stereo not given) | 26.4 | 24.4 |  | 28.2 | 9.61 | 21.1 µM | 16.7 µM | 36.2 | 28.1 | 25 µM |  |
| Cc1cc(O)c(C(C)C)cc1CN1CCCCC1 | > 100 | > 100 | > 100 µM | > 100 | > 100 | > 100 µM | > 100 µM | > 100 | > 100 | > 100 µM |  |
| COC(=O)C1C(O)CCC2CN3CCc4c([nH]c5cccc(OC)c45)C3CC21 (stereo not given) | > 100 | > 100 | > 100 µM | > 100 | > 100 | > 100 µM | > 100 µM | > 100 | > 100 | > 100 µM |  |
